Values after ≈ are worked out from the molar mass of the structure shown.
Key:
Bacillus subtilis = test: Antibacterial activity against Bacillus subtilis after 18 hrs by broth dilution method; format: functional, organism-based
Staphylococcus aureus = test: Antibacterial activity against Staphylococcus aureus after 18 hrs by broth dilution method; format: functional, organism-based
Escherichia coli = test: Antibacterial activity against Escherichia coli after 18 hrs by broth dilution method; format: functional, organism-based
Pseudomonas = test: Antibacterial activity against Pseudomonas after 18 hrs by broth dilution method; format: functional, organism-based
[1] = system: Mycobacterium tuberculosis; test: Antitubercular activity against dormant Mycobacterium tuberculosis H37Ra assessed as growth inhibition at 3 ug/mL by XTT reduction menadione assay; format: functional; details: read-out: GI
[2] = Cytotoxicity against human HCT116 cells at 10 ug/mL by MTT assay; format: cell-based, HCT-116; details: read-out: INH
[3] = Cytotoxicity against human MCF7 cells at 10 ug/mL by MTT assay; format: cell-based; details: read-out: INH
[4] = Cytotoxicity against human MCF7 cells at 3 ug/mL by MTT assay; format: cell-based; details: read-out: INH
[5] = system: Mycobacterium bovis BCG str. ATCC 35743; test: Antitubercular activity against dormant Mycobacterium bovis BCG ATCC 35743 assessed as growth inhibition at 10 ug/mL by NR assay; format: functional
[6] = system: Mycobacterium bovis BCG str. ATCC 35743; test: (§1) Antitubercular activity against dormant Mycobacterium bovis BCG ATCC 35743 by NR assay; format: functional
[7] = as §1; format: functional, Mycobacterium bovis BCG str. ATCC 35743
[8] = Cytotoxicity against human MCF7 cells at 30 ug/mL by MTT assay; format: cell-based; details: read-out: INH
[9] = Cytotoxicity against human HCT116 cells at 3 ug/mL by MTT assay; format: cell-based, HCT-116; details: read-out: INH
[10] = system: Mycobacterium bovis BCG str. ATCC 35743; test: Antitubercular activity against dormant Mycobacterium bovis BCG ATCC 35743 assessed as growth inhibition at 30 ug/mL by NR assay; format: functional
[11] = system: Mycobacterium bovis BCG str. ATCC 35743; test: Antitubercular activity against dormant Mycobacterium bovis BCG ATCC 35743 assessed as growth inhibition at 3 ug/mL by NR assay; format: functional
[12] = Cytotoxicity against human A549 cells at 30 ug/mL by MTT assay; format: cell-based; details: read-out: INH
[13] = Cytotoxicity against human HCT116 cells at 30 ug/mL by MTT assay; format: cell-based, HCT-116; details: read-out: INH
[14] = Cytotoxicity against human A549 cells at 3 ug/mL by MTT assay; format: cell-based; details: read-out: INH
[15] = Cytotoxicity against human A549 cells at 10 ug/mL by MTT assay; format: cell-based; details: read-out: INH
[16] = system: Mycobacterium tuberculosis; test: Antitubercular activity against dormant Mycobacterium tuberculosis H37Ra assessed as growth inhibition at 30 ug/mL by XTT reduction menadione assay; format: functional; details: read-out: GI
[17] = system: Mycobacterium tuberculosis; test: Antitubercular activity against dormant Mycobacterium tuberculosis H37Ra assessed as growth inhibition at 10 ug/mL by XTT reduction menadione assay; format: functional; details: read-out: GI
[18] = system: Mycobacterium tuberculosis; test: Antitubercular activity against dormant Mycobacterium tuberculosis H37Ra by XTT reduction menadione assay; format: functional, organism-based

Row | SMILES | inhibition of growth at 3 µg/mL [1] [%] | cytotoxicity at 10 ug/mL [2] [%] | cytotoxicity at 10 ug/mL [3] [%] | cytotoxicity at 3 ug/mL [4] [%] | growth inhibition (GI) [5] [%] | IC90 [6] [µg/mL] | IC50 [7] [µg/mL] | cytotoxicity at 30 ug/mL [8] [%] | cytotoxicity at 3 ug/mL [9] [%] | growth inhibition (GI) [10] [%] | growth inhibition (GI) [11] [%] | cytotoxicity at 30 ug/mL [12] [%] | cytotoxicity at 30 ug/mL [13] [%] | cytotoxicity at 3 ug/mL [14] [%] | cytotoxicity at 10 ug/mL [15] [%] | inhibition of growth at 30 µg/mL [16] [%] | inhibition of growth at 10 µg/mL [17] [%] | IC50 [18] [µg/mL] | IC90 [18] [µg/mL] | other results
1 | CC1(C)S[C@@H]2[C@H](NC(=O)[C@H](N)c3ccccc3)C(=O)N2[C@H]1C(=O)O [AMPICILLIN] |  |  |  |  |  |  |  |  |  |  |  |  |  |  |  |  |  |  |  | IC50 (Bacillus subtilis): 10.3 µg/mL (≈ 29.5 µM); MIC (Bacillus subtilis): 5.89 µg/mL (≈ 16.9 µM); IC50 (Staphylococcus aureus): 1 µg/mL (≈ 2.86 µM); MIC (Staphylococcus aureus): 0.12 µg/mL (≈ 0.343 µM); IC50 (Escherichia coli): 1.46 µg/mL (≈ 4.18 µM); MIC (Escherichia coli): 0.41 µg/mL (≈ 1.17 µM); IC50 (Pseudomonas): 4.36 µg/mL (≈ 12.5 µM); MIC (Pseudomonas): 2.83 µg/mL (≈ 8.1 µM)
2 | Cc1ccc(N2C(=O)CSC2c2ccc(Cl)cc2)cc1 (stereo not given) | 34 | 7.2 | 9.6 | -0.9 | 29.2 | > 30 | > 30 | 11.3 | -8.6 | 5.3 | -6.6 | 0 | 28.8 | 1.3 | 0 | 5.2 | 38.1 | > 30 | > 30 | 
3 | O=C1CSC(c2ccc(O)cc2)N1c1ccc(Cl)cc1 (stereo not given) | 29.8 | 10.4 | 32.2 | 24.9 | -15.5 | > 30 | > 30 | 43.4 | 4.3 | -2.2 | 6 | 0 | 20.1 | 0 | 0 | 16.3 | 10.3 | > 30 | > 30 | 
4 | O=C1CSC(c2ccc(Cl)cc2)N1c1ccc(Cl)cc1 (stereo not given) | 11.8 | 1.3 | 16.6 | 14.5 | 0 | > 30 | > 30 | 14.8 | -8.1 | -0.8 | -20.2 | 0 | 15.9 | 0 | 0 | -19.8 | 24.1 | > 30 | > 30 | 
5 | COc1ccc(C2SCC(=O)N2c2ccc(Cl)cc2)cc1 (stereo not given) | 37.6 | -2.3 | 0 | 0 | -0.7 | > 30 | > 30 | 38.6 | -2.9 | 1.6 | 5.3 | 0 | 12 | -4 | 0 | 9.5 | 18 | > 30 | > 30 | 
6 | Cc1ccc(C2SCC(=O)N2c2ccccc2)cc1 (stereo not given) | 12 | -11.9 | 16.9 | 0 | 0.2 | > 30 | > 30 | 40.7 | -25.8 | 16.6 | 2 | 27.8 | -9.8 | -10.3 | -12.6 | 17.8 | 31 | > 30 | > 30 | 
7 | O=C1CSC(c2ccc(F)cc2)N1c1ccc(Cl)cc1 (stereo not given) | 8.8 | 18.6 | 38.1 | 32.2 | -3.8 | > 30 | > 30 | 43.7 | 9.4 | -1.3 | -3.2 | 4.9 | 50.4 | -7 | 0 | 30.2 | -14.6 | > 30 | > 30 | 
8 | NNC(=O)c1ccncc1 [ISONIAZID] |  |  |  |  |  | 0.045 (≈ 0.328 µM) | 0.0023 (≈ 0.0168 µM) |  |  |  |  |  |  |  |  |  |  |  | 0.075 (≈ 0.547 µM) | 
